Experiment [1] concerns the target T1, IRAK1 (Homo sapiens, UniProt P51617).
T1 construct: purchased Reaction Biology (RBC), HotSpot kinase assay
Description: RBC HotSpot Kinase Assay, IRAK1. The following applies: isolated kinase, 33P-ATP. The experiment is classed as biochemical. In short, it runs like this:
(§1)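 Catalytic activity, not binding, is measured: substrate transphosphorylation from 33P-ATP is captured on P81 filters after 2 hours at room temperature. Enzyme is the easiest-expressed form, sometimes truncated. Compound and kinase are preincubated 20 min before ATP addition.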

Experiment [2] deals with MOLM14 D835Y cells. Description: MOLM14 D835Y cell viability assay (Cell Titer Glo). The experiment is classed as cell-based. The following applies: Homo sapiens, MOLM-14, 48 h. In short, it runs like this:
(§2)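 MOLM14 cells carrying FLT3 D835Y or F691L were seeded at 1000 cells/well in RPMI-1640 with 20% FBS and dosed at 22 concentrations, 1:2 dilutions from 10 μM. Viability after 48 h by Cell Titer Glo luminescence; 2.3 μM bortezomib as cytotoxic control.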
For orientation: Cellular ATP, detected with luciferase, serves as a proxy for viable cell number.

The subject of experiment [3] is MOLM14 F691L cells. Description: MOLM14 F691L cell viability assay (Cell Titer Glo). It counts as cell-based. The following applies: Homo sapiens, MOLM-14, 48 h. Put shortly:
as §2

For experiment [4], the target named is T2, IRAK4 (Homo sapiens, UniProt Q9NWZ3).
T2 sequence (Q9NWZ3 1-460): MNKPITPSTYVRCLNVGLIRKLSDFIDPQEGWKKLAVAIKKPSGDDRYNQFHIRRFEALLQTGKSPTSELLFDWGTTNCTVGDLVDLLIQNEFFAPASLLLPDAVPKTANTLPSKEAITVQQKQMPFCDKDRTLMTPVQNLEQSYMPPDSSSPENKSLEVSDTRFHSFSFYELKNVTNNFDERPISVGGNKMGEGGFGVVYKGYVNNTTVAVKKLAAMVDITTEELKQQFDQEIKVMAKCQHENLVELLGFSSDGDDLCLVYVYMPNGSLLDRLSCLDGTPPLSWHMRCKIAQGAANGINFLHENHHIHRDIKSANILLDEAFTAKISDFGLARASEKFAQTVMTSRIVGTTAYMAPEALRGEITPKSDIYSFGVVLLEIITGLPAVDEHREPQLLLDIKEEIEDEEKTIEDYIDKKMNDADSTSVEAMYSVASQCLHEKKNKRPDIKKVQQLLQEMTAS
The experiment can be described thus: RBC HotSpot Kinase Assay, IRAK4. It counts as biochemical. Also on record: purchased Reaction Biology (RBC), HotSpot kinase assay. The following applies: isolated kinase, 33P-ATP. Put shortly: as §1

For experiment [5], the target named is T3, FLT3 (Homo sapiens, UniProt P36888).
T3 sequence (P36888 27-993): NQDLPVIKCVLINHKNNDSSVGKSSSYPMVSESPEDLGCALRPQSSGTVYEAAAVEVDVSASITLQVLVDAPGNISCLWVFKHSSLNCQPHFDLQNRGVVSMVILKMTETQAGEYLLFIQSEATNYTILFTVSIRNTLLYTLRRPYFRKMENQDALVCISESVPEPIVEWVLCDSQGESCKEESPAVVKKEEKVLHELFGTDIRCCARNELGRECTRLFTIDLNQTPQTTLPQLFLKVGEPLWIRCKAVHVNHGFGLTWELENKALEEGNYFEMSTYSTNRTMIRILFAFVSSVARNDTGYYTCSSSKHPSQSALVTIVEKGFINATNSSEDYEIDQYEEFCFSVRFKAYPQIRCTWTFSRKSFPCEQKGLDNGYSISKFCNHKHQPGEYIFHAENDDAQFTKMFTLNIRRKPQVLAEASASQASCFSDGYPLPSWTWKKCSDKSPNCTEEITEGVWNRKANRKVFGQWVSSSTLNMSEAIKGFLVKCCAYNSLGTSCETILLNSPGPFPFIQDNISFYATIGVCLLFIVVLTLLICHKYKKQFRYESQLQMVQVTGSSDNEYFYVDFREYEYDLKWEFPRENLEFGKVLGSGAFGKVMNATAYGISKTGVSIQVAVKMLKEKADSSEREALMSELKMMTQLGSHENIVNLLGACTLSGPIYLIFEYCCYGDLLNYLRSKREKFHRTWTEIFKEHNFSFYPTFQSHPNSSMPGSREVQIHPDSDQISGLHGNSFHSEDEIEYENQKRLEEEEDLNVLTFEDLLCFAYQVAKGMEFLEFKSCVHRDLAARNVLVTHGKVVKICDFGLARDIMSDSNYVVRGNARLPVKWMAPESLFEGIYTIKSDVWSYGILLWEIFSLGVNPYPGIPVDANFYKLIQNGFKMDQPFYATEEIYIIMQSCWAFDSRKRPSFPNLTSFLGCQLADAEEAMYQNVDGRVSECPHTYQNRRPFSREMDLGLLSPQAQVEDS
The experiment can be described thus: RBC HotSpot Kinase Assay, FLT3. Also on record: purchased Reaction Biology (RBC), HotSpot kinase assay. The following applies: isolated kinase, 33P-ATP. The experiment is classed as biochemical. Put shortly:
as §1

What is called IC50 is the concentration that gives 50% inhibition.

T1 sequence (P51617 whole entry): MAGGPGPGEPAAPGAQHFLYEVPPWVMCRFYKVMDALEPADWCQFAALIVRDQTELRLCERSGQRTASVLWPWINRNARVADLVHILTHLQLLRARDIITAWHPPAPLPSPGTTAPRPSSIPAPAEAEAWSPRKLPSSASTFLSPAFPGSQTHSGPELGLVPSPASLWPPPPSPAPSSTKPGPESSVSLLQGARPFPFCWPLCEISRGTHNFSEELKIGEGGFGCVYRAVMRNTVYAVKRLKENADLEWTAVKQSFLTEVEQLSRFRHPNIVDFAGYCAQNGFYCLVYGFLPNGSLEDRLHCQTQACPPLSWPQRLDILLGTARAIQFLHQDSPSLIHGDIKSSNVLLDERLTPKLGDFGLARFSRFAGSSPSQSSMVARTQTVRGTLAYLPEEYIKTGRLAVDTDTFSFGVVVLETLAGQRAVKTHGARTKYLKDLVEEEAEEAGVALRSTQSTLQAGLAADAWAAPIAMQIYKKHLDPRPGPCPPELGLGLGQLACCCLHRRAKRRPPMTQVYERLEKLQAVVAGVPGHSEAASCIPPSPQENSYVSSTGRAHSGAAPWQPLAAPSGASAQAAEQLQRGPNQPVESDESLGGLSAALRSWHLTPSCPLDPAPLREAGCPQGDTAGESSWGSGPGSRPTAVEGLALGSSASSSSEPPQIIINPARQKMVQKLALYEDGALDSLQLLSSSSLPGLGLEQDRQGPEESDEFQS

`O=C1COCCN1c1cn2c(-c3cccc(N[C@H]4CNCC[C@@H]4F)n3)cnc2cn1` [Compound 112, 4-(3-(6-(((3S,4S)-4-fluoropiperidin-3-yl)amino)pyridin-2-yl)imidazo[1,2-a]pyrazin-6-yl)morpholin-3-one]: the IC50 in experiment [1] is 1860 nM; in experiment [2] it was 49 nM; in experiment [3], 183 nM; in experiment [4], 140 nM; in experiment [5] it was < 0.5 nM.

As for `O=C1CCCCN1c1cn2c(-c3cccc(N[C@@H]4CCCNC4)n3)cnc2cn1` [Compound 113, (R)-1-(3-(6-(piperidin-3-ylamino)pyridin-2-yl)imidazo[1,2-a]pyrazin-6-yl)piperidin-2-one], the IC50 is 9940 nM in experiment [1]; 172 nM in experiment [2]; 579 nM in experiment [3]; 1330 nM in experiment [4]; 0.7 nM in experiment [5].

In the case of `O=C1CCCCN1c1cn2c(-c3cccc(N[C@H]4CNC[C@@H]4F)n3)cnc2cn1` [Compound 114, 1-(3-(6-(((3S,4S)-4-fluoropyrrolidin-3-yl)amino)pyridin-2-yl)imidazo[1,2-a]pyrazin-6-yl)piperidin-2-one], the IC50 in experiment [1] was > 10000 nM; in experiment [2], 460 nM; in experiment [3] it was 4860 nM; in experiment [4], 132 nM; in experiment [5], 1 nM.

Consider `O=C1CCCCN1c1cn2c(-c3cccc(N[C@H]4CNCC[C@@H]4F)n3)cnc2cn1` [Compound 115, 1-(3-(6-(((3S,4S)-4-fluoropiperidin-3-yl)amino)pyridin-2-yl)imidazo[1,2-a]pyrazin-6-yl)piperidin-2-one], for which the IC50 in experiment [1] was 9400 nM; in experiment [2], 92 nM; in experiment [3], 273 nM; in experiment [4], 150 nM; in experiment [5], < 0.5 nM.

For `O=C1NCCN1c1cn2c(-c3cccc(N[C@@H]4CCCNC4)n3)cnc2cn1` [Compound 116, (R)-1-(3-(6-(piperidin-3-ylamino)pyridin-2-yl)imidazo[1,2-a]pyrazin-6-yl)imidazolidin-2-one], the IC50 came to 125 nM in experiment [1]; 39 nM in experiment [2]; 193 nM in experiment [3]; 14 nM in experiment [4]; 1 nM in experiment [5].

In the case of `O=C1NCCN1c1cn2c(-c3cccc(N[C@H]4CNC[C@@H]4F)n3)cnc2cn1` [Compound 117, 1-(3-(6-(((3S,4S)-4-fluoropyrrolidin-3-yl)amino)pyridin-2-yl)imidazo[1,2-a]pyrazin-6-yl)imidazolidin-2-one], the IC50 in experiment [1] was 75 nM; in experiment [2] it was 41 nM; in experiment [3], 273 nM; in experiment [4], 2 nM; in experiment [5] it was 0.8 nM.

Turning to `O=C1CCCN1c1cn2c(-c3cccc(N[C@@H]4CCCNC4)n3)cnc2cn1` [Compound 120, 1-[3-[6-[[(3R)-3-piperidyl]amino]-2-pyridyl]imidazo[1,2-a]pyrazin-6-yl]pyrrolidin-2-one], the IC50 was 234 nM in experiment [1]; 24 nM in experiment [2]; 86 nM in experiment [3]; 15 nM in experiment [4]; < 0.5 nM in experiment [5].

As to `CC(C)(C)c1cn2c(-c3cc(F)cc(N[C@H]4CNC[C@@H]4F)n3)cnc2cn1` [Compound 122, 6-(6-(tert-butyl)imidazo[1,2-a]pyrazin-3-yl)-4-fluoro-N-((3S,4S)-4-fluoropyrrolidin-3-yl)pyridin-2-amine], the IC50 in experiment [1] is 475 nM; in experiment [2], 334 nM; in experiment [3] it was 770 nM; in experiment [4], 31 nM; in experiment [5], < 0.5 nM.

`CC(C)(C)c1cn2c(-c3cc(F)cc(N[C@@H]4CCCNC4)n3)cnc2cn1` [Compound 123, (R)-6-(6-(tert-butyl)imidazo[1,2-a]pyrazin-3-yl)-4-fluoro-N-(piperidin-3-yl)pyridin-2-amine]: the IC50 in experiment [1] came out at 296 nM; in experiment [2] it was 86 nM; in experiment [3], 244 nM; in experiment [4], 38 nM; in experiment [5], 0.6 nM.

For `CC(C)(C)c1cn2c(-c3cc(F)cc(N[C@H]4CNCC[C@@H]4F)n3)cnc2cn1` [Compound 124, 6-(6-(tert-butyl)imidazo[1,2-a]pyrazin-3-yl)-4-fluoro-N-((3S,4S)-4-fluoropiperidin-3-yl)pyridin-2-amine], the IC50 was 143 nM in experiment [1]; 130 nM in experiment [2]; 290 nM in experiment [3]; 17 nM in experiment [4]; < 0.5 nM in experiment [5].

As to `CC(C)(C)c1cn2c(-c3cccc(N[C@H]4CNC[C@@H]4F)n3)cnc2cn1` [Compound 128, 6-(6-(tert-butyl)imidazo[1,2-a]pyrazin-3-yl)-N-((3S,4S)-4-fluoropyrrolidin-3-yl)pyridin-2-amine], the IC50 in experiment [1] was 108 nM; in experiment [2], 58 nM; in experiment [3], 326 nM; in experiment [4], 0.6 nM; in experiment [5], < 0.5 nM.

Take `CC(C)Oc1cn2c(-c3cccc(N[C@@H]4CCCNC4)n3)cnc2cn1` [Compound 131, (R)-6-(6-isopropoxyimidazo[1,2-a]pyrazin-3-yl)-N-(piperidin-3-yl)pyridin-2-amine]: the IC50 in experiment [1] was 438 nM; in experiment [2] it was 27 nM; in experiment [3] it was 168 nM; in experiment [4], 10 nM; in experiment [5], < 0.5 nM.

`FC(F)COc1cn2c(-c3cccc(N[C@H]4CNCC[C@@H]4F)n3)cnc2cn1` [compound 76, 6-(6-(2,2-difluoroethoxy)imidazo[1,2-a]pyrazin-3-yl)-N-((3S,4S)-4-fluoropiperidin-3-yl)pyridin-2-amine]: the IC50 in experiment [1] is 159 nM; in experiment [2], 19 nM; in experiment [3], 199 nM; in experiment [4] it was 1 nM; in experiment [5], < 0.5 nM.

Regarding `CC(C)Oc1cn2c(-c3cccc(N[C@H]4CNCC[C@@H]4F)n3)cnc2cn1` [compound 132, N-((3S,4S)-4-fluoropiperidin-3-yl)-6-(6-isopropoxyimidazo[1,2-a]pyrazin-3-yl)pyridin-2-amine], the IC50 in experiment [1] was 144 nM; in experiment [2], 19 nM; in experiment [3] it was 119 nM; in experiment [4] it was 2 nM; in experiment [5], < 0.5 nM.

The record behind these values is US12612410B2 (CHILDREN'S HOSPITAL MEDICAL CENTER, priority 2020, dated 2026).
